SMILES strings stand for the structures.

T1 sequence (P48736 whole entry, species assumed): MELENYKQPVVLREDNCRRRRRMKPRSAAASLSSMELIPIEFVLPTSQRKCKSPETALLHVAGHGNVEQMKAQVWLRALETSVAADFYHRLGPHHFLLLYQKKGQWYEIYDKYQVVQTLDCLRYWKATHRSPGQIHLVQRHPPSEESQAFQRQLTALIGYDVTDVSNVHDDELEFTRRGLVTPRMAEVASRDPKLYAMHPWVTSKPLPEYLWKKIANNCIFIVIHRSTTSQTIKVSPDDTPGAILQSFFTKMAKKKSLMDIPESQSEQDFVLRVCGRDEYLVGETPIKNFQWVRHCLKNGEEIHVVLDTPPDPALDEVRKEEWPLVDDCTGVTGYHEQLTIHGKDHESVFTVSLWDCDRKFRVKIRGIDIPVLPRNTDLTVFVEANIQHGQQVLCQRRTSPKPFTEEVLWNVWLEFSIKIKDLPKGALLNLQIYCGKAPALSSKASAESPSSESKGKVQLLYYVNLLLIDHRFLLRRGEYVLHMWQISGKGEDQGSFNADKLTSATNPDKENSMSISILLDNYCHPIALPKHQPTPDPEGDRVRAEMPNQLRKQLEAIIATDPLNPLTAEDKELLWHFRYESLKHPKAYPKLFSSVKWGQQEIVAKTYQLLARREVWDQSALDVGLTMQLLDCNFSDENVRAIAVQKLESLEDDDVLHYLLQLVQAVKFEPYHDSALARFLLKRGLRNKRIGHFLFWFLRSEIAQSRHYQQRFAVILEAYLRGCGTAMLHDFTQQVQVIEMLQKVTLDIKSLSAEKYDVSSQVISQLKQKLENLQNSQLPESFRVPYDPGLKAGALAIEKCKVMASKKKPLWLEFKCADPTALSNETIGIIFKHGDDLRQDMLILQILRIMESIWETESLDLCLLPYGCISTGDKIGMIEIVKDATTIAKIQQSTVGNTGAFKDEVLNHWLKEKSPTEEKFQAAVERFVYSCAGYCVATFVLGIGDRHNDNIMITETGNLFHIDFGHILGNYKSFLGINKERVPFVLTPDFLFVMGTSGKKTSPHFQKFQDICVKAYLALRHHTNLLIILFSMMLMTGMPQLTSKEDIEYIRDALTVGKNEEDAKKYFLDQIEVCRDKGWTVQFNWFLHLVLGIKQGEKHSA
T1 sequence (Q8WYR1 whole entry partner, species assumed): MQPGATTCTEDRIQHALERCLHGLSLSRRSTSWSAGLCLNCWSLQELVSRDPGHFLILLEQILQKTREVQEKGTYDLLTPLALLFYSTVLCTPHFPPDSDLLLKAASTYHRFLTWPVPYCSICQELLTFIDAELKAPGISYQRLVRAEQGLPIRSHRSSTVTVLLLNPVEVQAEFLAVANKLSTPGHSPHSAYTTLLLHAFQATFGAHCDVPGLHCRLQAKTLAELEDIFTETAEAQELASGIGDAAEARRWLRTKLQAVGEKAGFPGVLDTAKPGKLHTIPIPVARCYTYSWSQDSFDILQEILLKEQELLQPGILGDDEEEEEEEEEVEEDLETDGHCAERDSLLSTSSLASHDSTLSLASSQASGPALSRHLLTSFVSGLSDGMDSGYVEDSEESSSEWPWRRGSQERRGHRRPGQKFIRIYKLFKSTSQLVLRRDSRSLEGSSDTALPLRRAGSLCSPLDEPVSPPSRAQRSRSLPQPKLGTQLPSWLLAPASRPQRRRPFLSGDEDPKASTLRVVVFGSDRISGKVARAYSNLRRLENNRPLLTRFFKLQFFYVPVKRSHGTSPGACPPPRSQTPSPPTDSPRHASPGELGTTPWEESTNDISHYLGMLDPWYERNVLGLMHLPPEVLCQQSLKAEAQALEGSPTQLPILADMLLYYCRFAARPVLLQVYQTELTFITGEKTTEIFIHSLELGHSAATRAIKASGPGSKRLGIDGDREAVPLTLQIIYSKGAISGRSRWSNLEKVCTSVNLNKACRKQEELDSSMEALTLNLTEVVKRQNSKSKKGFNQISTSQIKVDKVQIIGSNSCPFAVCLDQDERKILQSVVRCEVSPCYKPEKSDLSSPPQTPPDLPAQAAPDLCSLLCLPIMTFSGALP

The experiment addresses T1, p101/p110γ protein (PI3Kγ) (Homo sapiens, UniProt P48736).
T1 construct: HA; made in house; host or cells: Spodoptera frugiperda (Sf9) cells, baculovirus co-infection
The experiment is described as follows: PI3Kγ in vitro kinase assay. The class given is biochemical. The following applies: purified recombinant p101/p110γ with G protein β1/γ2 subunits, 20 μM ATP, PIP2 lipid micelles. Here is the method: Spodtera frugiperda cells, grown in ESF921 media, were co-infected with baculovirus expressing a glu-tagged p101 and baculovirus expressing an HA-tagged p110γ, at a 3:1 ratio of p101 baculovirus to p110γ baculovirus. Sf9 cells were grown to 1×10^7 total cells/mL in 10 L bioreactors and harvested 48-72 hours post infection. Samples of infected cells were then tested for expression of p101/p110γ PI3 kinase by immunoprecipitation and Western Blot analysis methods (see below).
To purify PI3Kγ, 4 volumes of room temperature hypotonic lysis buffer (1 mM MgCl2, 1 mM DTT, 5 mM EGTA, 1 mM Pefabloc, 0.5 μM aprotinin, 5 μM leupeptin, 2 μM pepstatin, 5 μM E64, pH 8) per gram of cell paste, was poured onto frozen cell pellets with stirring, then lysed in a nitrogen “bomb” at 400 psi (599HC T316, Parr Instrument Co, Moline, Ill.). NaCl was added to 150 mM, and sodium cholate was added to 1% and mixed for another 45 minutes. The lysates were clarified by centrifugation for 25 minutes at 14,000 rpm. The lysates were then loaded over anti-glu-linked Protein-G Sepaharose beads (Covance Research Products, Richmond, Calif.) using 20 mL resin/50 g cell paste. The column was washed with 15 volumes of wash buffer (1 mM DTT, 0.2 mM EGTA, 1 mM Pefabloc, 0.5 μM aprotinin, 5 μM leupeptin, 2 μM pepstatin, 5 μM E64, 150 mM NaCl, 1% sodium cholate, pH 8). PI3Kγ was eluted with 6 column volumes of wash buffer that contain 100 μg/mL of a peptide that competes for binding of the glu tag. The column fractions with the eluted protein (determined by taking OD280 readings) were collected and dialyzed in 0.2 mM EGTA, 1 mM DTT, 1 mM Pefabloc, 5 μM leupeptin, 0.5% sodium cholate, 150 mM NaCl, and 50% glycerol, pH 8. The fractions were stored at −80° C. until further use.
Spodtera frugiperda cells were coinfected with baculovirus expressing a glu-tagged G protein β1 and baculovirus expressing a G protein […], at a 1:1 ratio of glu-tagged G protein […] baculovirus to G protein β2 baculovirus. Sf9 cells are grown in 10 L bioreactors and harvested 48-72 hours post infection. Samples of infected cells were tested for G protein β1/β2 expression by Western Blot analysis, as described below. Cell lysates were homogenized and loaded onto a column of glu-tagged beads as in Biological Example 1 and competed off the column with a glu peptide and processed as described in Biological Example 1.
The inhibitory properties of the compounds in Table 1 were assayed in an in vitro PI3K assay. In a 96-well polypropylene plate, each well was spotted with 2 μL of 50 times the desired final concentration of compound in DMSO. Purified recombinant p101/p110γ protein (0.03 μg; ˜2.7 nM) and G protein β1/γ2 subunits (0.09 μg; ˜57.7 nM) for each reaction was combined in the assay buffer (30 mM HEPES, 100 mM NaCl, 1 mM EGTA, and 1 mM DTT). ATP and [γ-^32P-ATP] (0.09 μCi) were added to this mixture so that the final ATP concentration in the reaction was 20 μM. Lipid micelles were formed by sonicating phosphatidylinositol-4,5-diphosphate (PIP2), phosphatidylethanolamine (PE), and Na-cholate in the assay buffer for 10 minutes, adding MgCl2 and incubating on ice for 20 minutes, for final concentrations of 25 μM PIP2, 300 μM PE, 0.02% Na-cholate, and 10 mM MgCl2 in the reaction. The reactions were started by adding equal volumes lipid and enzyme mixture in a total volume of 50 μL, allowed to run for 20 minutes at room temperature, and stopped with 100 μL 75 mM H3PO4. The lipid product was transferred to a glass fiber filter plate and washed with 75 mM H3PO4 several times. The presence of radioactive lipid product (PIP3) was measured by adding Wallac Optiphase mix to each well and counting in a Wallac 1450 Trilux plate reader (PerkinElmer Life Sciences Inc., Boston, Mass. 02118). The IC50 for each compound tested is reported in μM in the Tables above.
With `COCCOc1nc(N2CCOCC2)ncc1C(=O)Nc1nn[nH]n1` [Example 8, 4-(2-Methoxy-ethoxy)-Z-morpholin-4-yl-pyrimidine-5-carboxylic acid (2H-tetrazol-5-yl)-amide], the IC50 (commonly the concentration that gives 50% inhibition) was 2320 nM.
In the case of `Cc1nc(N2CCOCC2)nc(OC2CCCCCC2)c1C(=O)Nc1nn[nH]n1` [Example 22, 4-Cycloheptyloxy-6-methyl-2-morpholin-4-yl-pyrimidine-5-carboxylic acid (2H-tetrazol-5-yl)-amide] it was 8440 nM; in that of `O=C(Nc1nn[nH]n1)c1cnc(N2CCOCC2)nc1OC1CCCCC1` [Example 4, 4-Cyclohexyloxy-2-morpholin-4-yl-pyrimidine-5-carboxylic acid (2H-tetrazol-5-yl)-amide], 1740 nM.
For `CC(C)Oc1nc(N2CCOCC2)ncc1C(=O)Nc1nn[nH]n1` [Example 3, 4-Isopropoxy-2-morpholin-4-yl-pyrimidine-5-carboxylic acid (2H-tetrazol-5-yl)-amide] the value was 87500 nM; for `CC1CC(C)CC(Oc2nc(N3CCOCC3)ncc2C(=O)Nc2nn[nH]n2)C1` (stereo not drawn) [Example 16, 4-(3,5-Dimethyl-cyclohexyloxy)-2-morpholin-4-yl-pyrimidine-5-carboxylic acid (2H-tetrazol-5-yl)-amide], 210 nM.
In the case of `O=C(Nc1nn[nH]n1)c1cnc(N2CCOCC2)nc1OC1CCCCCCC1` [Example 5, 4-Cyclooctyloxy-2-morpholin-4-yl-pyrimidine-5-carboxylic acid (2H-tetrazol-5-yl)-amide] it was 502 nM; in that of `O=C(Nc1nn[nH]n1)c1cnc(N2CCOCC2)nc1OCCC1CCCCC1` [Example 6, 4-(2-Cyclohexyl-ethoxy)-2-morpholin-4-yl-pyrimidine-5-carboxylic acid (2H-tetrazol-5-yl)-amide], 10100 nM.
As for `CC(C)(C)COc1nc(N2CCOCC2)ncc1C(=O)Nc1nn[nH]n1` [Example 13, 4-(2,2-Dimethyl-propoxy)-2-morpholin-4-yl-pyrimidine-5-carboxylic acid (2H-tetrazol-5-yl)-amide], the IC50 is 2060 nM.
With `O=C(Nc1nn[nH]n1)c1cnc(N2CCOCC2)nc1OC1CC2CCC1C2` (stereo not drawn) [Example 12, 4-(Bicyclo[2.2.1]hept-2-yloxy)-2-morpholin-4-yl-pyrimidine-5-carboxylic acid (2H-tetrazol-5-yl)-amide], the IC50 came to 845 nM.
For `O=C(Nc1nn[nH]n1)c1cnc(N2CCOCC2)nc1OC1CCCC1` [Example 2, 4-Cyclopentyloxy-2-morpholin-4-yl-pyrimidine-5-carboxylic acid (2H-tetrazol-5-yl)-amide] the value was 1540 nM; for `CC1(COc2nc(N3CCOCC3)ncc2C(=O)Nc2nn[nH]n2)CC1` [Example 15, 4-(1-Methyl-cyclopropylmethoxy)-2-morpholin-4-yl-pyrimidine-5-carboxylic acid (2H-tetrazol-5-yl)-amide], 1690 nM; for `O=C(Nc1nn[nH]n1)c1cnc(N2CCOCC2)nc1OC1CCOCC1` [Example 10, 2-Morpholin-4-yl-4-(tetrahydro-pyran-4-yloxy)-pyrimidine-5-carboxylic acid (2H-tetrazol-5-yl)-amide], 10500 nM.
For `CC1(C)CCCC(Oc2nc(N3CCOCC3)ncc2C(=O)Nc2nn[nH]n2)C1` (stereo not drawn) [Example 9, 4-(3,3-Dimethyl-cyclohexyloxy)-2-morpholin-4-yl-pyrimidine-5-carboxylic acid (2H-tetrazol-5-yl)-amide], the IC50 came out at 1360 nM.
Consider `O=C(Nc1nn[nH]n1)c1cnc(N2CCOCC2)nc1Oc1ccc(C2CCCCC2)cc1` [Example 18, 4-(4-Cyclohexyl-phenoxy)-2-morpholin-4-yl-pyrimidine-5-carboxylic acid (2H-tetrazol-5-yl)-amide], for which the concentration for half-maximal inhibition (IC50) was found to be 154 nM.
Consider `CC(C)C(C)Oc1nc(N2CCOCC2)ncc1C(=O)Nc1nn[nH]n1` (stereo not drawn) [Example 14, 4-(1,2-Dimethyl-propoxy)-2-morpholin-4-yl-pyrimidine-5-carboxylic acid (2H-tetrazol-5-yl)-amide], for which the IC50 is 1160 nM.
For `O=C(Nc1nnn[nH]1)c1cnc(N2CCOCC2)nc1NC1CCCCC1` [Example 21, 4-Cyclohexylamino-2-morpholin-4-yl-pyrimidine-5-carboxylic acid (1H-tetrazol-5-yl)-amide] the value was 28600 nM; for `CC(C)c1ccc(Oc2nc(N3CCOCC3)ncc2C(=O)Nc2nn[nH]n2)cc1` [Example 17, 4-(4-Isopropyl-phenoxy)-2-morpholin-4-yl-pyrimidine-5-carboxylic acid (2H-tetrazol-5-yl)-amide], 805 nM; for `O=C(Nc1nn[nH]n1)c1cnc(N2CCOCC2)nc1OC1C2CC3CC(C2)CC1C3` (stereo not drawn) [Example 11, 4-(Adamantan-2-yloxy)-2-morpholin-4-yl-pyrimidine-5-carboxylic acid (2H-tetrazol-5-yl)-amide], 485 nM.
With `O=C(Nc1nnn[nH]1)c1cnc(N2CCOCC2)nc1NC1CCCC1` [Example 19, 4-Cyclopentylamino-2-morpholin-4-yl-pyrimidine-5-carboxylic acid (1H-tetrazol-5-yl)-amide], the IC50 was 32700 nM.
Turning to `O=C(Nc1nnn[nH]1)c1cnc(N2CCOCC2)nc1NCc1ccccc1` [Example 20, 4-Benzylamino-2-morpholin-4-ylpyrimidine-5-carboxylic acid (1H-tetrazol-5-yl)-amide], the IC50 is 39100 nM.
In the case of `O=C(Nc1nn[nH]n1)c1cnc(N2CCOCC2)nc1OCC1CCCCC1` [Example 7, 4-Cyclohexylmethoxy-2-morpholin-4-yl-pyrimidine-5-carboxylic acid (2H-tetrazol-5-yl)-amide] it was 1840 nM.

These data come from patent US20090227587A1, “Pyrimidines as inhibitors of phosphoinositide-3-kinases (PI3K)” (Warner-Lambert Company LLC, priority 2003, published 2009).
